Measurements as given in PMC9030254, “Target Hopping from Protein Kinases to PXR: Identification of Small-Molecule Protein Kinase Inhibitors as Selective Modulators of Pregnane X Receptor from TüKIC Library” (Cells, 2022).

What was measured:
Assay in all cases: Kinase profiling
Format in all cases: biochemical
WEE1 = molecular target: T1, WEE1 (Homo sapiens, UniProt P30291)
T1 construct: purchased ProQinase (Freiburg, Germany)
Experimental: (§1) The analysis was performed by ProQinase (Freiburg, Germany).

FLT3 = molecular target: T2, FLT3 (Homo sapiens, UniProt P36888)
T2 construct: purchased ProQinase (Freiburg, Germany)
T2 sequence (P36888 27-993): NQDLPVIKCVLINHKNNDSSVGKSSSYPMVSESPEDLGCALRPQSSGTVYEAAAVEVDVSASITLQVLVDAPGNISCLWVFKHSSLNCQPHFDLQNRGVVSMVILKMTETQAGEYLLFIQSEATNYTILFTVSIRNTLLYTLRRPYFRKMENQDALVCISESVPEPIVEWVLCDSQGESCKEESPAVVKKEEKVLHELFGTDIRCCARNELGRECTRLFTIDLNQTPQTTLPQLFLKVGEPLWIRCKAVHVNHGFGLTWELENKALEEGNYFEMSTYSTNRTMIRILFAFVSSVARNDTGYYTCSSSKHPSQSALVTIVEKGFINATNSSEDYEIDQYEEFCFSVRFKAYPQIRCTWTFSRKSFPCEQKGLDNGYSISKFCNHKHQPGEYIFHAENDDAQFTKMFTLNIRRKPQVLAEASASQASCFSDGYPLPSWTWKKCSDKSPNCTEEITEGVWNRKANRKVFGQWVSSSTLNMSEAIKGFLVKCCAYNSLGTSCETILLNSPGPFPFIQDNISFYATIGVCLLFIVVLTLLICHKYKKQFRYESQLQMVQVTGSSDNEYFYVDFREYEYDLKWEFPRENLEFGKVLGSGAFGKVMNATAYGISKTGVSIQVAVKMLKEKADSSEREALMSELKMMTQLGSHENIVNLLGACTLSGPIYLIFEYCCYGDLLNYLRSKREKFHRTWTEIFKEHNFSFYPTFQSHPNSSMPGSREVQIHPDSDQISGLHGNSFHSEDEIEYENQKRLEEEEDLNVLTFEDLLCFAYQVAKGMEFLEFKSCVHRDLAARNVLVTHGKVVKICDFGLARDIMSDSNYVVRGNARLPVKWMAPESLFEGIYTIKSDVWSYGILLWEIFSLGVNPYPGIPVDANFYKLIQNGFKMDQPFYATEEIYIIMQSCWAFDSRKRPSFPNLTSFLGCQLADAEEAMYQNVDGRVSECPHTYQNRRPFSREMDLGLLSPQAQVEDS
Experimental: as §1

EPHA7 = molecular target: T3, EPHA7 (Homo sapiens, UniProt Q15375)
T3 construct: purchased ProQinase (Freiburg, Germany)
Experimental: as §1

MLK4 = molecular target: T4, MLK4 (Homo sapiens, UniProt Q5TCX8)
T4 construct: purchased ProQinase (Freiburg, Germany)
T4 sequence (Q5TCX8 whole entry): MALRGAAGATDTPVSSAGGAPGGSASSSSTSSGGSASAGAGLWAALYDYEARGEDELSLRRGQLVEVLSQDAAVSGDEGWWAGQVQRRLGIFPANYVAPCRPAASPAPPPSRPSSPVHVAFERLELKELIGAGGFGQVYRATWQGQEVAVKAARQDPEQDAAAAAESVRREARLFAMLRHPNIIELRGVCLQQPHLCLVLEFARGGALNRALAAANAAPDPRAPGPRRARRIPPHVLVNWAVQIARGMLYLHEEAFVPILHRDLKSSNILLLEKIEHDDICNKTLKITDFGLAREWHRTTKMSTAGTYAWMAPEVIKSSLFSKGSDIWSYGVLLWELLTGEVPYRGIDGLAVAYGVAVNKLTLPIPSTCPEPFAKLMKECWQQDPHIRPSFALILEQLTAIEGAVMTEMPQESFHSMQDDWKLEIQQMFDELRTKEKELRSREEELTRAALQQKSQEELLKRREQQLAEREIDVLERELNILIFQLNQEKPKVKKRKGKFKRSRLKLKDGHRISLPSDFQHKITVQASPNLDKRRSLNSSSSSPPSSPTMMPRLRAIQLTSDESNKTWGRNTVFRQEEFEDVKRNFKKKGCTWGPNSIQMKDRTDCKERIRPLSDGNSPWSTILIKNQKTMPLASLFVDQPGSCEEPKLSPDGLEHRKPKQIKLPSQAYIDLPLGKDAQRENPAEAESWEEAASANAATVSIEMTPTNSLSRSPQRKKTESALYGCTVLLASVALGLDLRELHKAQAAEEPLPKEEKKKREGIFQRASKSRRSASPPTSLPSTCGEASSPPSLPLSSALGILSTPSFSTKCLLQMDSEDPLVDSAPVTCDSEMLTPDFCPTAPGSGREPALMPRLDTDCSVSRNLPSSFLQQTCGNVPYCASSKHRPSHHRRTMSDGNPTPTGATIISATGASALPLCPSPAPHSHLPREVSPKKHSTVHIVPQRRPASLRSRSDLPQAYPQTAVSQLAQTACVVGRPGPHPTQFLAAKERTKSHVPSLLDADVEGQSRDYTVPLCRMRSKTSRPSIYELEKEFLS
Experimental: as §1

NEK11 = molecular target: T5, NEK11 (Homo sapiens, UniProt Q8NG66)
T5 construct: purchased ProQinase (Freiburg, Germany)
T5 sequence (Q8NG66 1-645): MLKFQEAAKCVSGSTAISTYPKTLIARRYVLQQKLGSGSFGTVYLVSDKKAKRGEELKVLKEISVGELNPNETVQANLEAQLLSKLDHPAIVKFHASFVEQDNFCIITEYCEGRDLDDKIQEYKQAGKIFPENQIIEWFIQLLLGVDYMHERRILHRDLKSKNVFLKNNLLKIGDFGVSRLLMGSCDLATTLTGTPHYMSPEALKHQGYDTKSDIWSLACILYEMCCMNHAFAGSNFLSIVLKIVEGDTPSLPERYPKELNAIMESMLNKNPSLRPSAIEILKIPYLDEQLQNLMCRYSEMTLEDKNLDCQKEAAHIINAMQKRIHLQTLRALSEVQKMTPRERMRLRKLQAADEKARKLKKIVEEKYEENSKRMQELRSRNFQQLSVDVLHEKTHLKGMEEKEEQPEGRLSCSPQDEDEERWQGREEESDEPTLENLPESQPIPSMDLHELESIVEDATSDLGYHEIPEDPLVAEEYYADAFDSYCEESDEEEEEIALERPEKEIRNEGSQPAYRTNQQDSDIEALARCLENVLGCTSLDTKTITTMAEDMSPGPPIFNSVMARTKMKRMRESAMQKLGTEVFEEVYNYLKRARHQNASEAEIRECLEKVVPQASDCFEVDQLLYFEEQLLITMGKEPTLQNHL
Experimental: as §1

GRK5 = molecular target: T6, GRK5 (Homo sapiens, UniProt P34947)
T6 construct: purchased ProQinase (Freiburg, Germany)
Experimental: as §1

EPHA4 = molecular target: T7, EPHA4 (Homo sapiens, UniProt P54764)
T7 construct: purchased ProQinase (Freiburg, Germany)
T7 sequence (P54764 20-986): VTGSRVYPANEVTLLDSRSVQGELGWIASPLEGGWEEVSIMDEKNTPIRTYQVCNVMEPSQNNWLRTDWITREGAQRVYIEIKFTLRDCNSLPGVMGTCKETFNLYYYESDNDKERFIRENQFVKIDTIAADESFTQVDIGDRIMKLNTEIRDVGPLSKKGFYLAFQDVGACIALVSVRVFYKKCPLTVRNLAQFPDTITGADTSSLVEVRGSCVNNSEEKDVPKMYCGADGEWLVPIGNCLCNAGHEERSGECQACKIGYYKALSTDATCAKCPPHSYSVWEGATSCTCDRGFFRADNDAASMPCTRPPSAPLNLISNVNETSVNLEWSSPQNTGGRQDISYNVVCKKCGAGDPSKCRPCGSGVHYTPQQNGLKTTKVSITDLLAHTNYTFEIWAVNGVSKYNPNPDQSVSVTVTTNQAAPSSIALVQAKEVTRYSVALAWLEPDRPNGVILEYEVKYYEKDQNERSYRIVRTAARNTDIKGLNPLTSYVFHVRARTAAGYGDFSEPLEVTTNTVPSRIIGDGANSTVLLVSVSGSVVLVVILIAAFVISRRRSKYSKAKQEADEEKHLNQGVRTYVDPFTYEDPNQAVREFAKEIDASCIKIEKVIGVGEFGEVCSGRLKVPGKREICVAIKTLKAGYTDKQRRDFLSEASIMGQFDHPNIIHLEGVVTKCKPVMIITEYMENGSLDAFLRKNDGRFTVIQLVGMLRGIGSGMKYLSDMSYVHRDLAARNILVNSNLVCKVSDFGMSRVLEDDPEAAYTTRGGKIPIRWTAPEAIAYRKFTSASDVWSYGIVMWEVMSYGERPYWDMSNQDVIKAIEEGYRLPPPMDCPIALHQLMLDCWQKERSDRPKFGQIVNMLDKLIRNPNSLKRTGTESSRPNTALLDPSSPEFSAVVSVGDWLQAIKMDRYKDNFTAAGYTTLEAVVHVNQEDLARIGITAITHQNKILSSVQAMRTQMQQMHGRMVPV
Experimental: as §1

FGFR3 = molecular target: T8, FGFR3 (Homo sapiens, UniProt P22607)
T8 construct: purchased ProQinase (Freiburg, Germany)
T8 sequence (P22607 23-806): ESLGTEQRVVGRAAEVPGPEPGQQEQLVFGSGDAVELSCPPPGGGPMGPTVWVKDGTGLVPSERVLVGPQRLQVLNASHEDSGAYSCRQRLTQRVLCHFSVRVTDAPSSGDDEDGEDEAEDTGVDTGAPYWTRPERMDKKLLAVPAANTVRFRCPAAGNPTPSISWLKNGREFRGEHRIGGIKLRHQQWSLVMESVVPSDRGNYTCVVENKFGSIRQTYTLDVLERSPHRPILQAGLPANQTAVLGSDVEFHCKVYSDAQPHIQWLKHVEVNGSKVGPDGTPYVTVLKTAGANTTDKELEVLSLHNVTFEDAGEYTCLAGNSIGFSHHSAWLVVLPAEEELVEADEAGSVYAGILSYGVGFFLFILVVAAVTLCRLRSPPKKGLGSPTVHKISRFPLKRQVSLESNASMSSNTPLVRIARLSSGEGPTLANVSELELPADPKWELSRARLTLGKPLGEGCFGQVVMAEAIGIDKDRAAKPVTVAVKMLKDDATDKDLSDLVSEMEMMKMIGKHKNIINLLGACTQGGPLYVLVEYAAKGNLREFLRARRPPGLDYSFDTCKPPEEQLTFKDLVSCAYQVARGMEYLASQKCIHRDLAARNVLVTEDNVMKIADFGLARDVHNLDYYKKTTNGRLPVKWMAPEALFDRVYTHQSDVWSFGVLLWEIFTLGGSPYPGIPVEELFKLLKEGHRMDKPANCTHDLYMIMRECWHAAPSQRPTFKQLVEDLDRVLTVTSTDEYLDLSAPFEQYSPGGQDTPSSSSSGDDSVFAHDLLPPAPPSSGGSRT
Experimental: as §1

PAK2 = molecular target: T9, PAK2 (Homo sapiens, UniProt Q13177)
T9 construct: purchased ProQinase (Freiburg, Germany)
Experimental: as §1

DYRK3 = molecular target: T10, DYRK3 (Homo sapiens, UniProt O43781)
T10 construct: purchased ProQinase (Freiburg, Germany)
T10 sequence (O43781 1-588): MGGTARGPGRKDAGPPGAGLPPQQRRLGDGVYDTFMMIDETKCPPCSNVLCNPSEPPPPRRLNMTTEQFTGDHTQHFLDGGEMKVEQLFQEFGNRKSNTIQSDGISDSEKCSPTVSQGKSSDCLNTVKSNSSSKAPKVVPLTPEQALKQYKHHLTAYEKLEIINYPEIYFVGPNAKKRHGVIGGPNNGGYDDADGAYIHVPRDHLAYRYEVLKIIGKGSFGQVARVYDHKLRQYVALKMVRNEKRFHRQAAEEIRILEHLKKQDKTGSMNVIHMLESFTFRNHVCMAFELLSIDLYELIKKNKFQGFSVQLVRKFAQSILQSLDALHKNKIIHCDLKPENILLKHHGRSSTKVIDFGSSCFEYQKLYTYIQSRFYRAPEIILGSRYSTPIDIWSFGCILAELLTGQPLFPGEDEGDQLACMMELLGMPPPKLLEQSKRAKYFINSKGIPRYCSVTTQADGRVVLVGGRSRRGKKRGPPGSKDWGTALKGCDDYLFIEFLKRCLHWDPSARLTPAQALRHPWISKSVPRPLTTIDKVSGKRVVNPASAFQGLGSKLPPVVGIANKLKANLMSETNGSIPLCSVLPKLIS
Experimental: as §1

HIPK3 = molecular target: T11, HIPK3 (Homo sapiens, UniProt Q9H422)
T11 construct: purchased ProQinase (Freiburg, Germany)
T11 sequence (Q9H422 whole entry): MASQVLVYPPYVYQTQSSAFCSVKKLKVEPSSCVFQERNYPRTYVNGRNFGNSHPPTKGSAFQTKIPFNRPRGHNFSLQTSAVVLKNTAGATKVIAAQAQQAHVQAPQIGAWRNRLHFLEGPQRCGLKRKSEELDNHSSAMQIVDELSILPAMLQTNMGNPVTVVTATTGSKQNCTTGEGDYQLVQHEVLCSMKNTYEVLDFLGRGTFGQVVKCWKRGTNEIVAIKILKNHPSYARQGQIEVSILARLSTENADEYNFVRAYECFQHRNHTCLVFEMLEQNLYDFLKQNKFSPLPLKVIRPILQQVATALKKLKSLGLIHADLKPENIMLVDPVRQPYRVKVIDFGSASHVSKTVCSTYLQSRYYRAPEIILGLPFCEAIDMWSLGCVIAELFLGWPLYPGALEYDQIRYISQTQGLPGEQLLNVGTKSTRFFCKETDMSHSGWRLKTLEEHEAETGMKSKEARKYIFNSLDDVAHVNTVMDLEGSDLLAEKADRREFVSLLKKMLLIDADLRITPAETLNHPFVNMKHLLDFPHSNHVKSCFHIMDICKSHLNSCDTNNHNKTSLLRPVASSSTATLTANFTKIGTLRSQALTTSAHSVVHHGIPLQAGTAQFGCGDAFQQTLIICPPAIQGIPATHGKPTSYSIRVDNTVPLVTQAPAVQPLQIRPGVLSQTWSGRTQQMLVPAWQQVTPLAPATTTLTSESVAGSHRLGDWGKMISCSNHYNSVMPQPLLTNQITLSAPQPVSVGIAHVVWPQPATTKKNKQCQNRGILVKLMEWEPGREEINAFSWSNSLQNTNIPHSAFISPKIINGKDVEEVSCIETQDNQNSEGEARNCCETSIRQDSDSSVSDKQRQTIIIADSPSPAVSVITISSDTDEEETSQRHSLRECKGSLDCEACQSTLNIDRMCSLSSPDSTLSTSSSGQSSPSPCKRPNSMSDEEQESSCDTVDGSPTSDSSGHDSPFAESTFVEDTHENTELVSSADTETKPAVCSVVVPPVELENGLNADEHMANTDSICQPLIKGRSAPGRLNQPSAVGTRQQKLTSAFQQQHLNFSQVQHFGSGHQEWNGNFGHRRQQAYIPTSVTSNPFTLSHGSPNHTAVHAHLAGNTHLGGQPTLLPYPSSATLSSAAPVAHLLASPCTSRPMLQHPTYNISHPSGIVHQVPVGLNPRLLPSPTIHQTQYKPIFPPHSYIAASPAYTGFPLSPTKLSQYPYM
Experimental: as §1

GSK3alpha = molecular target: T12, GSK3alpha (Homo sapiens, UniProt P49840)
T12 construct: purchased ProQinase (Freiburg, Germany)
Experimental: as §1

T1 sequence (P30291 whole entry): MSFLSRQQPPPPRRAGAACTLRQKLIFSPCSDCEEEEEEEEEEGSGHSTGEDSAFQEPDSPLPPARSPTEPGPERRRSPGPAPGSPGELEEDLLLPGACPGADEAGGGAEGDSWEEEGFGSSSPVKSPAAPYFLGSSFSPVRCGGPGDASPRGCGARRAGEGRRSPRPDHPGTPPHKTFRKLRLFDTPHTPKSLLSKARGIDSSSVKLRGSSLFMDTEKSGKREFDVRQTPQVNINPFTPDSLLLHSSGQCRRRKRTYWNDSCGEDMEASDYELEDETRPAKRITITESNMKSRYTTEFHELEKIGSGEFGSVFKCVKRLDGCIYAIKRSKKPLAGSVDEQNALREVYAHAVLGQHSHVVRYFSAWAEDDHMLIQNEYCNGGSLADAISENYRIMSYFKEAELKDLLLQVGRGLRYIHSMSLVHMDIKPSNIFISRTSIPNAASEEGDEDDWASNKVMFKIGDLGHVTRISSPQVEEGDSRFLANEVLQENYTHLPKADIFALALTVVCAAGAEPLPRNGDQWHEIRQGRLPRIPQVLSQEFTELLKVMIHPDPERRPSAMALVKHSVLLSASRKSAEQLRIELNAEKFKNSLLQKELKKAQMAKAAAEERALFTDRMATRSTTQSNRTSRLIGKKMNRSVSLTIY

| Structure (SMILES) | Residual activity (WEE1; 1.0E-05 M) | Residual activity (WEE1; 1.0E-06 M) | Residual activity (FLT3; 1.0E-05 M) | Residual activity (FLT3; 1.0E-06 M) | Residual activity (EPHA7; 1.0E-05 M) | Residual activity (EPHA7; 1.0E-06 M) | Residual activity (MLK4; 1.0E-05 M) | Residual activity (MLK4; 1.0E-06 M) | Residual activity (NEK11; 1.0E-05 M) | Residual activity (NEK11; 1.0E-06 M) | Residual activity (GRK5; 1.0E-05 M) | Residual activity (GRK5; 1.0E-06 M) | Residual activity (EPHA4; 1.0E-05 M) | Residual activity (EPHA4; 1.0E-06 M) | Residual activity (FGFR3; 1.0E-05 M) | Residual activity (FGFR3; 1.0E-06 M) | Residual activity (PAK2; 1.0E-05 M) | Residual activity (PAK2; 1.0E-06 M) | Residual activity (DYRK3; 1.0E-05 M) | Residual activity (DYRK3; 1.0E-06 M) | also measured |
| --- | --- | --- | --- | --- | --- | --- | --- | --- | --- | --- | --- | --- | --- | --- | --- | --- | --- | --- | --- | --- | --- |
| O=C(Nc1ccc(F)c(Nc2ccc3c(c2)CCCCC3=O)c1)c1cccc(F)c1 [Compound 109] | 95 % of control | 100 % of control | 91 % of control | 98 % of control | 96 % of control | 85 % of control | 99 % of control | 99 % of control | 104 % of control | 86 % of control | 103 % of control | 102 % of control | 90 % of control | 86 % of control | 95 % of control | 110 % of control | 69 % of control | 91 % of control | 88 % of control | 96 % of control | Residual activity (HIPK3; 1.0E-05 M): 90 % of control; Residual activity (HIPK3; 1.0E-06 M): 89 % of control; Residual activity (GSK3alpha; 1.0E-05 M): 106 % of control; Residual activity (GSK3alpha; 1.0E-06 M): 112 % of control |
| O=C(Cc1ccccc1)Nc1ccc(F)c(Nc2ccc3c(c2)CCCCC3=O)c1 [Compound 100] | 100 % of control | 103 % of control | 94 % of control | 101 % of control | 101 % of control | 103 % of control | 102 % of control | 94 % of control | 110 % of control | 97 % of control | 106 % of control | 104 % of control | 88 % of control | 97 % of control | 76 % of control | 98 % of control | 68 % of control | 101 % of control | 104 % of control | 98 % of control | Residual activity (HIPK3; 1.0E-05 M): 87 % of control; Residual activity (HIPK3; 1.0E-06 M): 88 % of control; Residual activity (GSK3alpha; 1.0E-05 M): 90 % of control; Residual activity (GSK3alpha; 1.0E-06 M): 109 % of control |
